# Peptide text beside a SMILES is read from it.
# Tests used:
# [1] = in vitro; type: cell-based
# Procedure: The cytotoxicity of the peptides to HELA cells (Acc57) and COS-7 cells (CRL-1651) was determined using the MTT reduction assay (T. Mossman, J. Immunol. Meth. 1983, 65, 55-63; M. V. Berridge, A. S. Tan, Arch. Biochem. Biophys. 1993, 303, 474-482). Briefly, the method was as follows: 4000 HELA cells/well and 3400 COS-7 cells/well were seeded and grown in 96-well microtiter plates for 24 h at 37° C. at 5% CO2. Thereafter, time zero (Tz) was determined by MTT reduction (see below). The supernatant of the remaining wells was discarded, and fresh medium and compounds in serial dilutions (12.5, 25 and 50 μg/mL, triplicates) were pipetted into the wells. After incubation of the cells for 48 h at 37° C. at 5% CO2 the supernatant was discarded again and 100 μL MTT reagent (0.5 mg/mL in RPMI1640 and DMEM, respectively)/well was added. Following incubation at 37° C. for 2-4 h the media were aspirated and the cells were spiked (100 μL isopropanol/well). The absorbance of the solubilized formazan was measured at 595 nm (OD595peptide). For each concentration averages were calculated from triplicates. The percentage of growth was calculated as follows: (OD595peptide-OD595Tz-OD595Empty well)/(OD595Tz-OD595Empty well)×100%. The GI50 (Growth Inhibition) concentrations were calculated for each peptide by using a trend line function for the concentrations (50, 25, 12.5 and 0 μg/mL), the corresponding percentages and the value 50, (=TREND (C50:C0%50:%0,50).
# [2] = test system: Shigella boydii DSM 7532; settings: Mueller-Hinton II broth + 0.02% BSA, 18-20 hours at 37° C.
# Procedure: […] colony forming units (CFU)/mL. Aliquots (50 μl) of inoculate were added to 50 μl of MH broth+0.02% BSA containing the peptide in serial two-fold dilutions. The following microorganisms were used to determine antibiotic selectivity of the peptides: Bacillus subtilis DSM 10 and Shigella boydii DSM 7532.
# [3] = test system: human red blood cells (hRBC); type: cell-based; settings: red cells of human, 1 h
# Procedure: The peptides were tested for their hemolytic activity against human red blood cells (hRBC). Fresh hRBC were washed three times with phosphate buffered saline (PBS) and centrifuged for 10 min at 2000×g. Compounds (100 μg/mL) were incubated with 20% hRBC (v/v) for 1 h at 37° C. and shaking at 300 rpm. The final erythrocyte concentration was approximately 0.9×10^9 cells/mL. A value of 0% and 100% cell lyses, respectively, was determined by incubation of hRBC in the presence of PBS containing 0.001% acetic acid and 2.5% Triton X-100 in H2O, respectively. The samples were centrifuged, the supernatants were 8-fold diluted in PBS buffer and the optical densities (OD) were measured at 540 nm. The 100% lyses value (OD540H2O) gave an OD50 of approximately 0.5-1.0.
# Percent hemolysis was calculated as follows: (OD540peptide/OD540H2O)×100%.
SMILES,GI50 at 48 h ([1]; African green monkey) [µg/mL],GI50 at 48 h ([1]; human) [µg/mL],Shigella boydii DSM 7532 MIC [2] [µg/mL],Hemolysis at 100 μg/mL [3] [%]
"CC[C@H](C)[C@@H]1NC(=O)[C@H](CCCNC(=N)N)NC(=O)[C@H](Cc2c[nH]c3ccccc23)NC(=O)[C@@H]2CCCN2C(=O)[C@H]2CCCN2C(=O)[C@H](C)NC(=O)[C@H](CCC(N)=O)NC(=O)[C@H](CC(C)C)NC(=O)[C@H](CCCNC(=N)N)NC(=O)[C@H](CCC(N)=O)NC(=O)[C@H](CC(C)C)NC(=O)[C@@H](CCCNC(=N)N)NC(=O)[C@H]([C@@H](C)CC)NC(=O)[C@H](CCCNC(=N)N)NC1=O [Example 13] (HELM PEPTIDE1{W.R.I.R.I.[dR].L.Q.R.L.Q.A.[dP].P}$PEPTIDE1,PEPTIDE1,1:R1-14:R2$$$V2.0)",> 50,> 50,16,0.0
"CC[C@H](C)[C@@H]1NC(=O)[C@H](CCCNC(=N)N)NC(=O)[C@H](Cc2c[nH]c3ccccc23)NC(=O)[C@@H]2CCCN2C(=O)[C@H]2CCCN2C(=O)[C@H](C)NC(=O)[C@H](CCC(N)=O)NC(=O)[C@H](CC(C)C)NC(=O)[C@H](CCCNC(=N)N)NC(=O)[C@H](CCC(N)=O)NC(=O)[C@H](CC(N)=O)NC(=O)[C@@H](CCCNC(=N)N)NC(=O)[C@H]([C@@H](C)CC)NC(=O)[C@H](CCCN)NC1=O [Example 8] (HELM PEPTIDE1{W.R.I.[Orn].I.[dR].N.Q.R.L.Q.A.[dP].P}$PEPTIDE1,PEPTIDE1,1:R1-14:R2$$$V2.0)",> 50,> 50,16,0.0
"CC[C@H](C)[C@@H]1NC(=O)[C@H](CCCNC(=N)N)NC(=O)[C@H](Cc2c[nH]c3ccccc23)NC(=O)[C@@H]2CCCN2C(=O)[C@H]2CCCN2C(=O)[C@H](CCCNC(=N)N)NC(=O)[C@H](CCCNC(=N)N)NC(=O)[C@H](CC(N)=O)NC(=O)[C@H](CCCNC(=N)N)NC(=O)[C@H](Cc2c[nH]cn2)NC(=O)[C@H](CC(N)=O)NC(=O)[C@@H](CCCNC(=N)N)NC(=O)[C@H]([C@@H](C)CC)NC(=O)[C@H](CCCNC(=N)N)NC1=O [Example 18] (HELM PEPTIDE1{W.R.I.R.I.[dR].N.H.R.N.R.R.[dP].P}$PEPTIDE1,PEPTIDE1,1:R1-14:R2$$$V2.0)",> 50,39,4,0.3
"CC[C@H](C)[C@@H]1NC(=O)[C@H](CCCNC(=N)N)NC(=O)[C@H](Cc2c[nH]c3ccccc23)NC(=O)[C@@H]2CCCN2C(=O)[C@H]2CCCN2C(=O)[C@H](C)NC(=O)[C@H](CCC(N)=O)NC(=O)[C@H](CC(C)C)NC(=O)[C@H](CCCNC(=N)N)NC(=O)[C@H](CCC(N)=O)NC(=O)[C@H](Cc2ccc(O)cc2)NC(=O)[C@@H](CCCNC(=N)N)NC(=O)[C@H]([C@@H](C)CC)NC(=O)[C@H](CCCNC(=N)N)NC1=O [Example 14] (HELM PEPTIDE1{W.R.I.R.I.[dR].Y.Q.R.L.Q.A.[dP].P}$PEPTIDE1,PEPTIDE1,1:R1-14:R2$$$V2.0)",> 50,> 50,16,0.0
"CC[C@H](C)[C@@H]1NC(=O)[C@H](CCCNC(=N)N)NC(=O)[C@H](Cc2c[nH]c3ccccc23)NC(=O)[C@@H]2CCCN2C(=O)[C@H]2CCCN2C(=O)[C@H](C)NC(=O)[C@H](CCC(N)=O)NC(=O)[C@H](CC(C)C)NC(=O)[C@H](CCCNC(=N)N)NC(=O)[C@H](CCC(N)=O)NC(=O)[C@H]([C@@H](C)O)NC(=O)[C@@H](CCCNC(=N)N)NC(=O)[C@H]([C@@H](C)CC)NC(=O)[C@H](CCCNC(=N)N)NC1=O [Example 12] (HELM PEPTIDE1{W.R.I.R.I.[dR].T.Q.R.L.Q.A.[dP].P}$PEPTIDE1,PEPTIDE1,1:R1-14:R2$$$V2.0)",> 50,> 50,>16,0.7
"CC[C@H](C)[C@@H]1NC(=O)[C@H](CCCNC(=N)N)NC(=O)[C@H](Cc2c[nH]c3ccccc23)NC(=O)[C@@H]2CCCN2C(=O)[C@H]2CCCN2C(=O)[C@H](C)NC(=O)[C@H](CCCNC(=N)N)NC(=O)[C@H](CC(N)=O)NC(=O)[C@H](CCCNC(=N)N)NC(=O)[C@H](CCCCN)NC(=O)[C@H](CC(N)=O)NC(=O)[C@@H](CCCNC(=N)N)NC(=O)[C@H]([C@@H](C)CC)NC(=O)[C@H](CCCNC(=N)N)NC1=O [Example 3] (HELM PEPTIDE1{W.R.I.R.I.[dR].N.K.R.N.R.A.[dP].P}$PEPTIDE1,PEPTIDE1,1:R1-14:R2$$$V2.0)",> 50,> 50,16,0.1
"CC[C@H](C)[C@@H]1NC(=O)[C@H](CCCNC(=N)N)NC(=O)[C@H](Cc2c[nH]c3ccccc23)NC(=O)[C@@H]2CCCN2C(=O)[C@H]2CCCN2C(=O)[C@H](CCN)NC(=O)[C@H](CCCNC(=N)N)NC(=O)[C@H](CC(N)=O)NC(=O)[C@H](CCN)NC(=O)[C@H](Cc2c[nH]c3ccccc23)NC(=O)[C@H](CC(N)=O)NC(=O)[C@@H](CCN)NC(=O)[C@H]([C@@H](C)CC)NC(=O)[C@H](CCCNC(=N)N)NC1=O [Example 17] (HELM PEPTIDE1{W.R.I.R.I.[NCC[C@@H](N[*:1])C(=O)[*:2]].N.W.[Dab].N.R.[Dab].[dP].P}$PEPTIDE1,PEPTIDE1,1:R1-14:R2$$$V2.0)",44,38,4,0.2
"CC[C@H](C)[C@@H]1NC(=O)[C@H](CCCN)NC(=O)[C@H](Cc2c[nH]c3ccccc23)NC(=O)[C@@H]2CCCN2C(=O)[C@H]2CCCN2C(=O)[C@H](C)NC(=O)[C@H](CCC(N)=O)NC(=O)[C@H](CC(C)C)NC(=O)[C@H](CCCNC(=N)N)NC(=O)[C@H](CCC(N)=O)NC(=O)[C@H](CC(N)=O)NC(=O)[C@@H](CCCNC(=N)N)NC(=O)[C@H]([C@@H](C)CC)NC(=O)[C@H](CCCNC(=N)N)NC1=O [Example 6] (HELM PEPTIDE1{W.[Orn].I.R.I.[dR].N.Q.R.L.Q.A.[dP].P}$PEPTIDE1,PEPTIDE1,1:R1-14:R2$$$V2.0)",> 50,> 50,>16,0.0
"CC[C@H](C)[C@@H]1NC(=O)[C@H](CCCNC(=N)N)NC(=O)[C@H]([C@@H](C)CC)NC(=O)[C@H](CCCNC(=N)N)NC(=O)[C@H](Cc2c[nH]c3ccccc23)NC(=O)[C@@H]2CCCN2C(=O)[C@H]2CCCN2C(=O)[C@H](C)NC(=O)[C@H](CCC(N)=O)NC(=O)[C@H](CC(C)C)NC(=O)[C@H](CCCNC(=N)N)NC(=O)[C@H](CCC(N)=O)NC(=O)[C@H](CC(N)=O)NC(=O)[C@H](CCCN)NC1=O [Example 9] (HELM PEPTIDE1{W.R.I.R.I.[Orn].N.Q.R.L.Q.A.[dP].P}$PEPTIDE1,PEPTIDE1,1:R1-14:R2$$$V2.0)",> 50,> 50,>16,0.0
"CC[C@H](C)[C@@H]1NC(=O)[C@H](CCCNC(=N)N)NC(=O)[C@H](Cc2c[nH]c3ccccc23)NC(=O)[C@@H]2CCCN2C(=O)[C@H]2CCCN2C(=O)[C@H](C)NC(=O)[C@H](CCC(N)=O)NC(=O)[C@H](CC2CCCCC2)NC(=O)[C@H](CCCNC(=N)N)NC(=O)[C@H](CCC(N)=O)NC(=O)[C@H](CC(N)=O)NC(=O)[C@@H](CCCNC(=N)N)NC(=O)[C@H]([C@@H](C)CC)NC(=O)[C@H](CCCNC(=N)N)NC1=O [Example 4] (HELM PEPTIDE1{W.R.I.R.I.[dR].N.Q.R.[Cha].Q.A.[dP].P}$PEPTIDE1,PEPTIDE1,1:R1-14:R2$$$V2.0)",> 50,> 50,>16,0.8

# From US8895499B2, “β-hairpin peptidomimetics” (Polyphor AG, priority 2010, dated 2014)
